From PubChem BioAssay AID1259407 (Chemical Carcinogenesis Research Information System (CCRIS), 2018)
Calls of active or inactive are those of the source. No rule for the calls is given here.

Tested on: CCRIS mutagenicity, Ames/micronucleus/aberration tests
Assay: CCRIS mutagenicity studies

NC(=O)N/N=C/c1ccc([N+](=O)[O-])o1
mutagenic call (End Point: IN VITRO CHROMOSOMAL ABERRATIONS, Test System: CHO CELLS, Metabolic Activation: NONE): active; positive | mutagenic call (End Point: IN VITRO CHROMOSOMAL ABERRATIONS, Test System: CHO CELLS, Metabolic Activation: RAT, LIVER, S-9, AROCLOR 1254): active; positive; precipitation occurred at 500 ug/ml | mutagenic call (Test System: AMES SALMONELLA TYPHIMURIUM, Strain/Indicator: TA97, Metabolic Activation: NONE, Method: FLUCTUATION TEST): active; positive | mutagenic call (Test System: AMES SALMONELLA TYPHIMURIUM, Strain/Indicator: TA98(1,8-DNP6), Metabolic Activation: NONE, Method: STANDARD PLATE): active; positive | mutagenic call (Test System: AMES SALMONELLA TYPHIMURIUM, Strain/Indicator: TA98(1,8-DNP6), Metabolic Activation: RAT, LIVER, S-9, 3-METHYLCHOLANTHRENE, Method: STANDARD PLATE): active; positive | mutagenic call (Test System: AMES SALMONELLA TYPHIMURIUM, Strain/Indicator: TA98(NR), Metabolic Activation: NONE, Method: STANDARD PLATE): active; positive | mutagenic call (Test System: AMES SALMONELLA TYPHIMURIUM, Strain/Indicator: TA98(NR), Metabolic Activation: RAT, LIVER, S-9, 3-METHYLCHOLANTHRENE, Method: STANDARD PLATE): active; positive | mutagenic call (Test System: AMES SALMONELLA TYPHIMURIUM, Strain/Indicator: TA98, Metabolic Activation: HAMSTER, LIVER, S-9, AROCLOR 1254 (10%), Method: PREINCUBATION): active; positive | mutagenic call (Test System: AMES SALMONELLA TYPHIMURIUM, Strain/Indicator: TA98, Metabolic Activation: HAMSTER, LIVER, S-9, AROCLOR 1254, Method: PREINCUBATION): active; positive | mutagenic call (Test System: AMES SALMONELLA TYPHIMURIUM, Strain/Indicator: TA98, Metabolic Activation: NONE, Method: PREINCUBATION): active; positive | mutagenic call (Test System: AMES SALMONELLA TYPHIMURIUM, Strain/Indicator: TA98, Metabolic Activation: NONE, Method: STANDARD PLATE): active; positive | mutagenic call (Test System: AMES SALMONELLA TYPHIMURIUM, Strain/Indicator: TA98, Metabolic Activation: RAT LIVER S-9, AROCLOR 1254, Method: STANDARD PLATE): active; positive | mutagenic call (Test System: AMES SALMONELLA TYPHIMURIUM, Strain/Indicator: TA98, Metabolic Activation: RAT, LIVER, S-9, 3-METHYLCHOLANTHRENE, Method: STANDARD PLATE): active; positive | mutagenic call (Test System: AMES SALMONELLA TYPHIMURIUM, Strain/Indicator: TA98, Metabolic Activation: RAT, LIVER, S-9, AROCLOR 1254 (10%), Method: PREINCUBATION): active; positive | mutagenic call (Test System: AMES SALMONELLA TYPHIMURIUM, Strain/Indicator: TA98, Metabolic Activation: RAT, LIVER, S-9, AROCLOR 1254, Method: PREINCUBATION): active; positive | mutagenic call (Test System: AMES SALMONELLA TYPHIMURIUM, Strain/Indicator: TA98, Metabolic Activation: RAT, LIVER, S-9, KC500 OR PHENOBARBITAL, Method: LIQUID SUSPENSION): active; positive | mutagenic call (Test System: AMES SALMONELLA TYPHIMURIUM, Strain/Indicator: TA100, Metabolic Activation: HAMSTER, LIVER, S-9, AROCLOR 1254 (10%), Method: PREINCUBATION): active; positive | mutagenic call (Test System: AMES SALMONELLA TYPHIMURIUM, Strain/Indicator: TA100, Metabolic Activation: HAMSTER, LIVER, S-9, AROCLOR 1254, Method: PREINCUBATION): active; positive | mutagenic call (Test System: AMES SALMONELLA TYPHIMURIUM, Strain/Indicator: TA100, Metabolic Activation: NONE, Method: PREINCUBATION): active; positive | mutagenic call (Test System: AMES SALMONELLA TYPHIMURIUM, Strain/Indicator: TA100, Metabolic Activation: RAT, LIVER, S-9, AROCLOR 1254 (10%), Method: PREINCUBATION): active; positive | mutagenic call (Test System: AMES SALMONELLA TYPHIMURIUM, Strain/Indicator: TA100, Metabolic Activation: RAT, LIVER, S-9, AROCLOR 1254, Method: PREINCUBATION): active; positive | mutagenic call (Test System: AMES SALMONELLA TYPHIMURIUM, Strain/Indicator: TA100, Metabolic Activation: RAT, LIVER, S-9, KC500 OR PHENOBARBITAL, Method: LIQUID SUSPENSION): active; positive | mutagenic call (Test System: AMES SALMONELLA TYPHIMURIUM, Strain/Indicator: TA102, Metabolic Activation: NONE, Method: STANDARD PLATE): active; positive | mutagenic call (Test System: AMES SALMONELLA TYPHIMURIUM, Strain/Indicator: TA102, Metabolic Activation: RAT LIVER S-9, AROCLOR 1254, Method: STANDARD PLATE): active; positive | mutagenic call (Test System: AMES SALMONELLA TYPHIMURIUM, Strain/Indicator: TA1535, Metabolic Activation: HAMSTER, LIVER, S-9, AROCLOR 1254 (10%), Method: PREINCUBATION): active; positive | mutagenic call (Test System: AMES SALMONELLA TYPHIMURIUM, Strain/Indicator: TA1535, Metabolic Activation: HAMSTER, LIVER, S-9, AROCLOR 1254, Method: PREINCUBATION): active; positive | mutagenic call (Test System: AMES SALMONELLA TYPHIMURIUM, Strain/Indicator: TA1535, Metabolic Activation: NONE, Method: PREINCUBATION): inactive; negative | mutagenic call (Test System: AMES SALMONELLA TYPHIMURIUM, Strain/Indicator: TA1535, Metabolic Activation: RAT, LIVER, S-9, AROCLOR 1254 (10%), Method: PREINCUBATION): active; positive | mutagenic call (Test System: AMES SALMONELLA TYPHIMURIUM, Strain/Indicator: TA1535, Metabolic Activation: RAT, LIVER, S-9, AROCLOR 1254, Method: PREINCUBATION): active; positive | mutagenic call (Test System: AMES SALMONELLA TYPHIMURIUM, Strain/Indicator: TA1537, Metabolic Activation: RAT, LIVER, S-9, AROCLOR 1254, Method: PREINCUBATION): inactive; negative | mutagenic call (Test System: E. COLI, Strain/Indicator: EE97, Metabolic Activation: NONE, Method: FLUCTUATION TEST): active; positive | mutagenic call (Test System: E. COLI, Strain/Indicator: WP2, Metabolic Activation: NONE, Method: FLUCTUATION TEST): active; positive | mutagenic call (Test System: E. COLI, Strain/Indicator: WP2, Metabolic Activation: NONE, Method: SPOT): active; positive | mutagenic call (Test System: E. COLI, Strain/Indicator: WP2, Metabolic Activation: NONE, Method: STANDARD PLATE): active; positive | mutagenic call (Test System: E. COLI, Strain/Indicator: WP2 UVRA, Metabolic Activation: NONE, Method: FLUCTUATION): active; positive | mutagenic call (Test System: E. COLI, Strain/Indicator: WP2 UVRA, Metabolic Activation: NONE, Method: SPOT): active; positive | mutagenic call (Test System: E. COLI, Strain/Indicator: WP2 UVRA, Metabolic Activation: NONE, Method: STANDARD PLATE): active; positive | mutagenic call (Test System: MOUSE LYMPHOMA, Strain/Indicator: L5178Y (TK+/TK-), Metabolic Activation: NONE, Method: SUSPENSION/PLATE): active; positive
